Measurements reported in patent US4786755A, “Diphenic acid monoamides” (Warner-Lambert Company, priority 1986, dated 1988).

These compounds were tested against T1, 5-lipoxygenase (Homo sapiens, UniProt P09917) (assay: 5-Lipoxygenase Assay Using Isolated Human Leukocytes (5LOA2)). Conditions: 20 μM exogenous arachidonic acid; read-out: IC50 5LOA (20)*.
T1 construct: endogenous in cells; host or cells: leukocytes isolated from fresh human blood
T1 sequence (P09917 1-674): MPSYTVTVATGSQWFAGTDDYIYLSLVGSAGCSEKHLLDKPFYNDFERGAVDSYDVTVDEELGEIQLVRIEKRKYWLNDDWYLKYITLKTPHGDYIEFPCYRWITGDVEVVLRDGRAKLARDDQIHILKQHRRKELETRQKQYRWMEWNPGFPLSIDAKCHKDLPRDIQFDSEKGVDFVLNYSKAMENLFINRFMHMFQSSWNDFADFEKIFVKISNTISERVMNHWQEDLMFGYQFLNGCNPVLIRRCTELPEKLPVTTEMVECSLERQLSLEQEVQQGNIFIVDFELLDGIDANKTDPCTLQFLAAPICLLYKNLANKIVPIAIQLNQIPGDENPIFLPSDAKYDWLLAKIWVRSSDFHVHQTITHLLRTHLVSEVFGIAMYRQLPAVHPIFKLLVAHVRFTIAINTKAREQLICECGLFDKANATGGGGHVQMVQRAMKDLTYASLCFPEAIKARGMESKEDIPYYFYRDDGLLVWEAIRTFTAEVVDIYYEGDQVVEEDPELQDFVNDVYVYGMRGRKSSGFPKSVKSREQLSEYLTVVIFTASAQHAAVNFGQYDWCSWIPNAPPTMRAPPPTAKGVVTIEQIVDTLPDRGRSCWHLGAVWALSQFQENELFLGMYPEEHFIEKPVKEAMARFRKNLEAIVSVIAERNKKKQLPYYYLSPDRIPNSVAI
Format: cell-based
Experimental: 5-Lipoxygenase Assay Using Isolated Human Leukocytes (5LOA2)
The formation of 5-HETE in human leukocytes is considered a measure of 5-lipoxygenase activity. The protocol is described in the following.
Fresh heparinized or EDTA treated human blood is mixed with 6% dextran-3% dextrose in isotonic saline in the ratio 0.25 ml dextran solution per 1.0 ml blood. After mixing the blood is allowed to sit at room temperature for about 90 minutes while the RBC's settle. During this period, the plasma is removed with a plastic pipette to nalgens tubes.
The plasma is centrifuged at 800 rpm ([…]) on the Beckman Td-b refrigerated centrifuge to remove the platelets (which remain in the supernatant). The pellet, consisting of leukocytes and erythrocytes, is treated with 10 ml 0.87% ammonium chloride at room temperature for four minutes, lysing the red cells. At the end of four minutes the cells are diluted with a 2× volume of phosphate buffered saline, pH 7.4, and centrifuged for ten minutes. The cells are washed three times with the phosphate buffered saline. Any of the pelleted cell matter which is not easily resuspended is discarded during the washings--the material contains platelets (12-lipoxygenase activity).
After washing, the cells are resuspended in phosphate buffered saline containing 1.0 mM calcium and 0.5 mM magnesium. After counting the cells are diluted to 1.5-2.0×10^7 leukocytes per milliliter.
To each polypropylene reaction tube is added 0.48 ml leukocytes in Ca-Mg phosphate buffered saline, pH 7.4; 1-5 μl test compound dissolved in DMSO and buffer; or DMSO for control tubes.
The tubes preincubate at 37° C. for five minutes.
The reaction is started by adding 20 μl of the following, 0.5 μl 20 mM arachidonic acid--final concentration=20 μm; 1 μl 5 mM calcium ionophore A23187--final concentration=10 μm; and 18.5 μl buffer.
The reaction proceeds for five minutes, then is stopped by adding 0.5 ml 0.5 mM ice cold Tris buffer, pH 8.0. The tubes are chilled on ice for ten minutes and then extracted three times with a total of 3.5 ml ethyl acetate (3.0 ml removed).
The tubes can be stored at this point. For extended storage, the tubes should be filled with nitrogen.
The ethyl acetate is evaporated with a Sorvall Speed-Vac. The residue is dissolved in ethanol. The tubes can also be stored at this point at -20° C. under nitrogen.
A portion of the ethanol solution is injected into the HPLC system for 5-HETE quantitation.
The HPLC system consists of Hewlett-Packard 1040A UV spectrophotometry system with an HP85 computer. Injections are made automatically with a Waters WISP 710B. The pump is a Spectra Physics SP8700. Peaks are measured with a Hewlett Packard 3390A integrator. An RP C-18 column is used. The solvent system is isocratic; the solvent is 70% methanol and 30% 0.01M sodium acetate, pH 5.7, pumped at 1.0 ml/min. The flow is monitored at 235 nm for 5-HETE quantitation. Using a 15 cm Alltech Nucleosil C-18 5 μM column provides for a sample turnaround time of about 16 minutes.
IC50 is calculated as the amount of test agent that causes 50% inhibition of the formation of 5-HETE relative to the control.

| IC50 | Structure (SMILES) |
| --- | --- |
| 19 µM | O=C(O)c1ccccc1-c1ccccc1C(=O)Nc1ccc(Cc2ccc(Cl)c(Cl)c2)cc1 [Example 9] |
| 4.6 µM | O=C(O)c1ccccc1-c1ccccc1C(=O)Nc1ccc(CCCCc2ccc(Cl)c(Cl)c2)cc1 [Example 15, [1,1'-Biphenyl]-2-carboxylic acid, 2'-[[[4-[4-(3,4-dichlorophenyl)butyl]phenyl]amino]carbonyl]-] |
| 6.7 µM | O=C(O)c1ccccc1-c1ccccc1C(=O)Nc1ccc(CCCc2ccc(Cl)c(Cl)c2)cc1 [Example 1, [1,1'-Biphenyl]-2-carboxylic acid, 2'-[[[4-[3-(3,4-dichlorophenyl)propyl]phenyl]amino]carbonyl]-] |
| 7.2 µM | O=C(O)c1ccccc1-c1ccccc1C(=O)Nc1ccc(CCCCc2ccccc2)cc1 [Example 19, [1,1'-Biphenyl]-2-carboxylic acid, 2'-[[[4-(4-phenylbutyl)phenyl]amino]carbonyl]-] |
| 22 µM | O=C(O)c1ccccc1-c1ccccc1C(=O)Nc1ccc(CCCc2ccccc2)cc1 [Example 16, [1,1'-Biphenyl]-2-carboxylic acid, 2'-[[[4-(3-phenylpropyl]phenyl]amino]carbonyl]-] |
| > 20 µM | COc1ccc(CCc2ccc(NC(=O)c3ccccc3-c3ccccc3C(=O)O)cc2)cc1OC [Example 7, [1,1'-Biphenyl]-2-carboxylic acid, 2'-[[[4-[2-(3,4-dimethoxyphenyl)ethyl]phenyl]amino]carbonyl]-] |
